{
  "source": "patent EP1310511A2",
  "about": "“Oligopeptides for promoting hair growth” (Sumitomo Electric Industries, Ltd., priority 2001, dated 2003)",
  "tested_on": "C57BL/6 mice",
  "assay": "Evaluation of hair growth promoting activity by in vivo method (transition from telogen to anagen on shaved back)",
  "conditions": "0.2 ml of 0.15mg/ml solution in 50% ethanol/PBS on shaved back, once a day, 5 days in a week, until 38th day",
  "experimental": "C3H and C57BL/6 mice are known to have sustained telogen for about 50 days from the 45th day after the birth to around the 95th day. Their hair cycle is easily judged based on the skin color changes, i.e., from pink in telogen to gray or black in anagen. A test for evaluating whether or not the administration the oligopeptides of the present invention promotes the transition from telogen to anagen was carried out using the mice. Seven weeks old (48 to 50-day old, female) C57BL/6 mice were purchased and hair of the back (about 3×2.5 cm^2) was carefully shaved with electric clippers for animals so as not to injure the skin, and the hair cycle was confirmed to be in telogen from the skin color. The oligopeptide solution prepared above was applied to five mice in each group, once a day and 5 days in a week in the amount of 0.2 ml until 38th day from the start of the test. The application was carried out by using a syringe without needle. […]\nPlural persons (two persons) observed the mice twice a week by naked eye for evaluation, and gave a 6-graded score depending on a ratio of hair restoration area based on the hair shaved area. […] Hair growth scores were calculated as follows. […] The sum of the above scores in each group was determined as the hair growth score. […]",
  "note": "Where no end group is shown, it is not given here.",
  "data": [
    {"sequence": "SIEQSCDQDE [oligopeptide comprising murine pep7 region]", "values": [
      {"measurement": "hair restoration / hair growth promoting activity (hair growth score versus control group)", "value": "has hair growth promoting activity"}
    ]}
  ]
}
